# According to patent publication US7972849B2, “Primate pluripotent stem cells produced by somatic cell nuclear transfer” (Oregon Health & Science University, priority 2007, dated 2011):
# Where a SMILES comes first, the peptide text is derived from it. The star is where a group is joined. Cbz = O=C(OCc1ccccc1)*
# Experiments:
# Format in all cases: cell-based, rhesus monkey
# [1] = system: monkey SCNT embryos; test: Nuclear remodeling (lamin A/C immunostaining, chromatin condensation) in reconstructed SCNT embryos; conditions: for occurrence of remodeling events in the donor nucleus: when used in the SCNT protocols disclosed
# Procedure: Monkey oocytes and SCNT-derived totipotent cells were fixed in 4% paraformaldehyde for 20 min. After permeabilization with 0.2% Triton X-100 and 0.1% Tween-20, non-specific reactions were blocked with 10% normal goat serum (Jackson ImmunoResearch Laboratories, Inc., West Grove, Pa.). SCNT-derived totipotent cells were then incubated for 40 min in mouse monoclonal antibody against Oct-4 (POU5F1) or lamin A/C (1:200; Santa Cruz Biotechnology, Inc., Santa Cruz, Calif.). After extensive washing, SCNT-derived totipotent cells were exposed to affinity-purified goat anti-mouse, secondary antibody conjugated with indocarbocyanine (Cy3, 1:200; Jackson ImmunoResearch). SCNT-derived totipotent cells were then co-stained with 2 μg/ml of 4′, 6-diamidino-2-phenylindole (DAPI) for 10 min, whole-mounted onto slides and examined under epifluorescence microscopy.
# Mature MII oocytes were exposed to 5 μM MG-132 immediately after retrieval and maintained in this inhibitor throughout enucleation and somatic donor cell fusion procedures.
# Monkey oocytes are particularly vulnerable to premature activation and MPF degradation during in vitro manipulations, a likely characteristic of primates but with potential relevance to SCNT success in other mammals.
# [2] = system: monkey SCNT embryos; test: Blastocyst development of monkey SCNT embryos produced by electrofusion
# Source text: Alternatively, donor cell nuclear transfer was accomplished by electrofusion. Electrofusion procedures were similar to the conventional protocols described previously (Mitalipov, Yeoman et al. 2002; Mitalipov, Kuo et al. 2003) with the exception that calcium acetates were removed from the fusion buffer. A disaggregated donor cell was aspirated into a micropipette and transferred into the perivitelline space of the cytoplast. Cell fusion was induced by two 50 μsec DC pulses of 2.7 kV/cm (Electro Square Porator T-820, BTX, Inc., San Diego, Calif.) in 0.25 M D-sorbitol buffer containing 0.5 mM Hepes and 1 mg/ml fatty acid-free BSA. Successful fusion was confirmed visually 20-30 min after electroporation by the disappearance of the donor cell in the perivitelline space.
# Reconstructed embryos were activated 2 hours after fusion by exposure by exposure to […] ionomycin (CalBiochem, San Diego, Calif.) for 5 min in TALP/HEPES medium supplemented with 1 mg/ml BSA and then transferred for 5 min in TALP/HEPES medium supplemented with 30 mg/ml BSA and 2 mM 6-dimethylaminopurine followed by a 5 h incubation in HECM-9 medium containing 2 mM 6-dimethylaminopurine at 37° C. in 5% CO2, 5% O2 and 90% N2. Activated SCNT embryos were placed in HECM-9 medium and cultured as described above.
# [3] = system: monkey oocytes; test: In vitro development following fertilization by ICSI of oocytes exposed to MG-132; conditions: 4 hours, MI oocytes, after ICSI
# Procedure: Fertilization by ICSI and culture conditions for TSCs was performed as described previously (Wolf, Thormahlen et al. 2004). After ICSI, injected oocytes were placed in 4-well dishes (Nalge Nunc International Co., Naperville, Ill.) containing protein-free HECM-9 medium and cultured at 37° C. in 6% CO2, 5% O2 and 89% N2. Cultures were maintained under paraffin oil. SCNT-derived TSCs at the 8-cell stage were transferred to fresh plates of HECM-9 medium supplemented with 5% fetal bovine serum (FBS; HyClone, Logan, Utah) and cultured to the blastocyst stage with the medium changed every other day.
# Failure to induce nuclear remodeling could reflect either inherently low MPF levels in MII oocytes recovered from ovarian stimulation protocols or loss of MPF resulting from premature oocyte activation during manipulation. In order to evaluate the first possibility, nuclear donor cells were fused with intact (non-enucleated) MII oocytes (n=13). […] To test the hypothesis that failed nuclear remodeling reflects premature activation caused by the SCNT procedures and decline in MPF activity mediated by the proteasome system, proteasome catalytic activity was inhibited with MG-132 (Josefsberg et al., Biol Reprod 62(5): 1270-7, 2000; Zhou et al., Science 302(5648): 117 2003).
# [4] = system: monkey oocytes; test: Inhibition of 1st polar body extrusion in monkey oocytes during the MI-MII transition; conditions: for # Matured after exposure / # Matured during exposure: exposure time 4 hours, MI oocytes, N=5
structure (smiles),measurement,setting,value
Cn1c(=O)c2c(ncn2C)n(C)c1=O [caffeine],occurrence of remodeling events in the donor nucleus,[1],increased the occurrence of remodeling events in the donor nucleus
same,time at which SCNT embryos reached the blastocyst stage,[2]; 2.5 mM caffeine for 2 hours immediately after electrofusion,≤ 8 days
same,# Blastocysts forming by day 12,"[2]; SCNT plus caffeine, 2.5 mM for 2 hours after electrofusion",0
same,# Blastocysts forming by day 8,"[2]; SCNT plus caffeine, 2.5 mM for 2 hours after electrofusion, count",4
same,Blastocysts forming by day 8 (%),"[2]; SCNT plus caffeine, 2.5 mM for 2 hours after electrofusion, percentage",31%
same,# cleaved,"[2]; SCNT plus caffeine, 2.5 mM for 2 hours immediately after electrofusion, N=19",13
CC(C)C[C@@H](C=O)NC(=O)[C@H](CC(C)C)NC(=O)[C@H](CC(C)C)NC(=O)OCc1ccccc1 [MG-132] (Cbz-Leu-Leu-Leu-aldehyde),# 8-cell,[3]; MG-132 0.5 μM,3
same,# Blastocyst,[3]; MG-132 0.5 μM,3
same,# Morula,[3]; MG-132 0.5 μM,3
same,# 8-cell,[3]; MG-132 2 μM,2
same,# Blastocyst,[3]; MG-132 2 μM,0
same,# Morula,[3]; MG-132 2 μM,0
same,# 8-cell,[3]; MG-132 5 μM,1
same,# Blastocyst,[3]; MG-132 5 μM,0
same,# Morula,[3]; MG-132 5 μM,0
same,# Matured after exposure,[4]; MG-132 0.5 μM,1
same,# Matured during exposure,[4]; MG-132 0.5 μM,3
same,# Matured after exposure,[4]; MG-132 2 μM,3
same,# Matured during exposure,[4]; MG-132 2 μM,2
same,# Matured after exposure,[4]; MG-132 5 μM,4
same,# Matured during exposure,[4]; MG-132 5 μM,0
same,inhibition of first polar body extrusion during the MI to MII transition,"[4]; MG-132 at 5 μM, pilot study",efficient in inhibiting first polar body extrusion
same,"nuclear remodeling of reconstructed embryos, by 4 hours after fusion","[1]; 5 μM MG-132 from retrieval throughout enucleation and fusion, by 4 hours",clear evidence of nuclear remodeling
same,"nuclear remodeling of reconstructed embryos, 1 hour after fusion","[1]; 5 μM MG-132 from retrieval throughout enucleation and fusion, sampled 1 hour after fusion",slight chromatin condensation and moderate lamin A/C staining
same,MPF activity in monkey cytoplasts,[1]; MG-132 exposure at the higher concentration (5 μM),preserved MPF activity
same,occurrence of remodeling events in the donor nucleus,[1],increased the occurrence of remodeling events in the donor nucleus
